# Reference: paper PMC9304322, “Targeting retinoic acid receptor alpha-corepressor interaction activates chaperone-mediated autophagy and protects against retinal degeneration” (Nature Communications, 2022)
# Values joined by “and” are separate entries in the source; they are usually repeats but may differ in a detail not shown here. Identical values can stand only once. Where no end group is shown, it is not given here. The star is where a group is joined. FITC = O=C1OC2(c3ccc(O)cc3Oc3cc(O)ccc32)c2ccc(NC(=S)*)cc21; Ahx = NCCCCCC(=O)O
# T1: ligand binding domain (LBD) of the human RARα (residues 176-421) (human, UniProt P10276 176-421)
# T1 construct: also called RARα LBD; retinoic acid receptor alpha; source: E. coli BL21(DE3) RIL, purified (Ni-NTA, ULP1 cleavage, subtractive Ni-NTA, Superdex 200); not shown: His6-SUMO, N-terminal, cleaved
# T1 sequence (looked up): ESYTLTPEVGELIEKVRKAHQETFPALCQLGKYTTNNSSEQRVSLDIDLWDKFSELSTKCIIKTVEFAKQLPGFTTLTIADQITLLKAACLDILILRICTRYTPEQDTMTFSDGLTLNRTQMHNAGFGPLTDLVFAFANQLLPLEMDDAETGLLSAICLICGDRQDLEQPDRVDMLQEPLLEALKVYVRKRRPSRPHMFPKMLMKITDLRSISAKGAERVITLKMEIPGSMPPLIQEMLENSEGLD
# B1: fluorescein-tagged peptide of N-CoR1, FITC-Ahx-RLITLADHICQIITQDFAR (peptide)
# peptide: {FITC-Ahx}-RLITLADHICQIITQDFAR
# notes: peptide of nuclear receptor corepressor 1 (N-CoR1); also called FITC-N-CoR1; N-CoR1 peptide; source: synthetic peptide; bought: Genscript, purity > 95%
# Columns and labels:
# [1] = tested on: NIH3T3 cells stably expressing the mCherry-GFP-LC3 reporter; assay: Macroautophagy activity, mCherry-GFP-LC3 reporter; type: cell-based, mouse
# Experimental: Cells were transduced with a lentiviral vector expressing mCherry-GFP-LC3[35], fixed and flux determined as the conversion of dual fluorescence puncta (autophagosomes) into only red fluorescent puncta (autolysosomes). Flux was also measured by immunoblot for LC3 in cells incubated for 6 h with 20 mM NH4Cl/100 μM leupeptin, by discounting the intensity of LC3 in non-treated cells from that in cells treated with the inhibitors.
# NIH3T3 cells = assay: Microarray transcriptional changes; type: cell-based, mouse; settings: NIH3T3; 20μM for 24 h
# Experimental: Total RNA of the treated cells was extracted using TRIzol (Invitrogen) and purified with RNeasy chromatography (Qiagen). Cy3-labeled RNA (0.6 μg) from each condition was hybridized to Agilent Mouse 8x60K. Data were processed using the oligo package and normalized using Robust Multiarray Average (RMA) method. […] Pathway analysis was performed using the STRING database ([…]).
# N-CoR1 and RARα = target: T2, N-CoR1 and RARα (Mus musculus, UniProt P11416); assay: Streptavidin pulldown of biotin-CA, immunoblot for N-CoR1 and RARα; type: cell-based; settings: NIH3T3, 10 μM for 24 h
# T2 construct: endogenous in cells; host or cells: NIH3T3
# rd10 mice = assay: rd10 mice, single intravitreal injection, retina histology; type: in vivo, mouse; settings: rd10 mice; individual values and Mean CA77
# Experimental: C57BL/6 J mice wild-type (WT) and homozygous for the Pde6 mutation (rd10 mouse model of retinal degeneration) were obtained from The Jackson Laboratory and experiments were performed at the age indicated in each part of the study. C57BL/6 KFERQ-Dendra mice were generated by back-crossing FVB KFERQ-Dendra mice with wild-type C57BL/6 mice for 8 generations. Both male and female animals were used in this study in equally distribution groups. However, results from both sexes were pooled, because of absence of significant differences in any of the parameters analyzed after statistical analysis with a mixed model of two-way ANOVA sex and treatment as independent variables and the corresponding measure as dependent variable. All animals were housed in a barrier-controlled facility (19–23 °C 30–60% relative humidity; 12 h light/dark cycle) with ad libitum access to standard chow pellets (protein 19 gm%/carbohydrate 67 gm%/fat 4 gm%) and water. For animal administration of CA compounds, a formula containing 30% PEG 400 (Sigma, #8.0745), 65% of 5% glucose solution, 5% Tween 80 (Sigma, #P1754) was used to dissolve them. CA compounds were prepared freshly by adding 5% DMSO and sonicating for 1 h. Treatment of KFERQ-Dendra mice with the CA compounds was done at 4 months of age by i.p. daily injection of 30 mg/kg bw or vehicle for three consecutive days and tissues collected 6 h after the last injection. In the case of rd10 mice, animals were daily injected from P18 to P25 with CA77 (40 mg/kg bw). In the case of intravitreal administration, a single intravitreal injection was applied at P18 with CA77 (40 µM) in DMSO/PBS and the contralateral eye was injected with PBS and DMSO at same concentration. At P26, mice were sacrificed and eyes fixed overnight with 4% PFA (Sigma, #P6148) in PBS at 4 °C for immunofluorescence or retinas dissected and immediately frozen for biochemistry. Distribution of animals in the vehicle or treatment group was done randomly. ICR (CD-1) outbred 3 months old male mice from ENVIGO were used for the pharmacokinetic studies (see pharmacokinetic section for housing and handling details). All animal studies and procedures complied with ethical regulations, were performed in accordance with the European Union guidelines and the ARVO Statement for the Use of Animals in Ophthalmic and Vision Research and were approved by the Institutional Animal Care and Use Committee at the Albert Einstein College of Medicine, the CSIC Bioetica Comite and approved by the Comunidad de Madrid, PROEX232/17.
# 12 μm cryosections and immunofluorescence in retinal sections[10] after orienting retinas with a dorsal mark, so comparisons were performed taking into account the precise retinal area. Primary antibodies used in this study were visual (rod) arrestin, cone arrestin, Opsin R/G, transducin, GFAP, N-CoR1. Sections were visualized by confocal microscopy (TCS SP5; Leica Microsystems).
# For ONL thickness quantification, DAPI images were taken at 40X in a fluorescence microscope Multidimensional system Leica AF6000 LX coupled to DMI600B microscope and Hamamatsu CCD 9100-O2 camera. At least two sections per animal were analyzed, preferably central sections. Eight images per retina equally distributed along the retina were acquired. Three measures were taken per image and ratio ONL/INL quantified with ImageJ tools. Leica LAS-X (3.7.4.23463) was used for image acquisition and ImageJ (v.2.1.0) was used for image processing. For OS length measures, fixed positions common to all pictures were considered and OS length was measured using ImageJ straight line tool.
# Eyes were enucleated, put in a plate with cold PBS and an incision was made under the microscope to let the fixative enter into the eye. […]
# [2] = target: T1, ligand binding domain (LBD) of the …; assay: fluorescence polarisation; FITC-N-CoR1 (5 nM) with serial two-fold dilutions of RARα LBD from 10 uM, without or with small molecules (10 uM: BMS, CA39, CA77); 20 mM Tris-HCl pH 7.5, 150 mM NaCl, 1 mM EDTA, 5 mM DTT, 10% glycerol; read at 30 min; settings: both partners purified
# [3] = c0 = 2 (axis unlabelled; ANOVA calls row factor Time)
# T2 sequence (P11416 whole entry): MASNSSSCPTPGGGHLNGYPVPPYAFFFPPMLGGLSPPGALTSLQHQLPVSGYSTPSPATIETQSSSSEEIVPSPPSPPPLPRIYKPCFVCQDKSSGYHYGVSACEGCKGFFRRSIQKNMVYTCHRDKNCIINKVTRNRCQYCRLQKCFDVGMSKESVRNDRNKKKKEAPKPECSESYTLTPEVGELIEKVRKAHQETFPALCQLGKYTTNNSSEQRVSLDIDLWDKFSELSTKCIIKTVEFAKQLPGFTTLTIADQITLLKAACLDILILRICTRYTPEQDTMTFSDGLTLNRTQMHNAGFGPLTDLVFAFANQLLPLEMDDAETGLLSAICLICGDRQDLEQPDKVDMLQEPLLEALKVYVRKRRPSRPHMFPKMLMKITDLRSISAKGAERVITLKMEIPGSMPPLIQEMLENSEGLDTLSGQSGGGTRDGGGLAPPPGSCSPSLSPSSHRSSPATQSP
# T2 sequence (Q60974 whole entry partner): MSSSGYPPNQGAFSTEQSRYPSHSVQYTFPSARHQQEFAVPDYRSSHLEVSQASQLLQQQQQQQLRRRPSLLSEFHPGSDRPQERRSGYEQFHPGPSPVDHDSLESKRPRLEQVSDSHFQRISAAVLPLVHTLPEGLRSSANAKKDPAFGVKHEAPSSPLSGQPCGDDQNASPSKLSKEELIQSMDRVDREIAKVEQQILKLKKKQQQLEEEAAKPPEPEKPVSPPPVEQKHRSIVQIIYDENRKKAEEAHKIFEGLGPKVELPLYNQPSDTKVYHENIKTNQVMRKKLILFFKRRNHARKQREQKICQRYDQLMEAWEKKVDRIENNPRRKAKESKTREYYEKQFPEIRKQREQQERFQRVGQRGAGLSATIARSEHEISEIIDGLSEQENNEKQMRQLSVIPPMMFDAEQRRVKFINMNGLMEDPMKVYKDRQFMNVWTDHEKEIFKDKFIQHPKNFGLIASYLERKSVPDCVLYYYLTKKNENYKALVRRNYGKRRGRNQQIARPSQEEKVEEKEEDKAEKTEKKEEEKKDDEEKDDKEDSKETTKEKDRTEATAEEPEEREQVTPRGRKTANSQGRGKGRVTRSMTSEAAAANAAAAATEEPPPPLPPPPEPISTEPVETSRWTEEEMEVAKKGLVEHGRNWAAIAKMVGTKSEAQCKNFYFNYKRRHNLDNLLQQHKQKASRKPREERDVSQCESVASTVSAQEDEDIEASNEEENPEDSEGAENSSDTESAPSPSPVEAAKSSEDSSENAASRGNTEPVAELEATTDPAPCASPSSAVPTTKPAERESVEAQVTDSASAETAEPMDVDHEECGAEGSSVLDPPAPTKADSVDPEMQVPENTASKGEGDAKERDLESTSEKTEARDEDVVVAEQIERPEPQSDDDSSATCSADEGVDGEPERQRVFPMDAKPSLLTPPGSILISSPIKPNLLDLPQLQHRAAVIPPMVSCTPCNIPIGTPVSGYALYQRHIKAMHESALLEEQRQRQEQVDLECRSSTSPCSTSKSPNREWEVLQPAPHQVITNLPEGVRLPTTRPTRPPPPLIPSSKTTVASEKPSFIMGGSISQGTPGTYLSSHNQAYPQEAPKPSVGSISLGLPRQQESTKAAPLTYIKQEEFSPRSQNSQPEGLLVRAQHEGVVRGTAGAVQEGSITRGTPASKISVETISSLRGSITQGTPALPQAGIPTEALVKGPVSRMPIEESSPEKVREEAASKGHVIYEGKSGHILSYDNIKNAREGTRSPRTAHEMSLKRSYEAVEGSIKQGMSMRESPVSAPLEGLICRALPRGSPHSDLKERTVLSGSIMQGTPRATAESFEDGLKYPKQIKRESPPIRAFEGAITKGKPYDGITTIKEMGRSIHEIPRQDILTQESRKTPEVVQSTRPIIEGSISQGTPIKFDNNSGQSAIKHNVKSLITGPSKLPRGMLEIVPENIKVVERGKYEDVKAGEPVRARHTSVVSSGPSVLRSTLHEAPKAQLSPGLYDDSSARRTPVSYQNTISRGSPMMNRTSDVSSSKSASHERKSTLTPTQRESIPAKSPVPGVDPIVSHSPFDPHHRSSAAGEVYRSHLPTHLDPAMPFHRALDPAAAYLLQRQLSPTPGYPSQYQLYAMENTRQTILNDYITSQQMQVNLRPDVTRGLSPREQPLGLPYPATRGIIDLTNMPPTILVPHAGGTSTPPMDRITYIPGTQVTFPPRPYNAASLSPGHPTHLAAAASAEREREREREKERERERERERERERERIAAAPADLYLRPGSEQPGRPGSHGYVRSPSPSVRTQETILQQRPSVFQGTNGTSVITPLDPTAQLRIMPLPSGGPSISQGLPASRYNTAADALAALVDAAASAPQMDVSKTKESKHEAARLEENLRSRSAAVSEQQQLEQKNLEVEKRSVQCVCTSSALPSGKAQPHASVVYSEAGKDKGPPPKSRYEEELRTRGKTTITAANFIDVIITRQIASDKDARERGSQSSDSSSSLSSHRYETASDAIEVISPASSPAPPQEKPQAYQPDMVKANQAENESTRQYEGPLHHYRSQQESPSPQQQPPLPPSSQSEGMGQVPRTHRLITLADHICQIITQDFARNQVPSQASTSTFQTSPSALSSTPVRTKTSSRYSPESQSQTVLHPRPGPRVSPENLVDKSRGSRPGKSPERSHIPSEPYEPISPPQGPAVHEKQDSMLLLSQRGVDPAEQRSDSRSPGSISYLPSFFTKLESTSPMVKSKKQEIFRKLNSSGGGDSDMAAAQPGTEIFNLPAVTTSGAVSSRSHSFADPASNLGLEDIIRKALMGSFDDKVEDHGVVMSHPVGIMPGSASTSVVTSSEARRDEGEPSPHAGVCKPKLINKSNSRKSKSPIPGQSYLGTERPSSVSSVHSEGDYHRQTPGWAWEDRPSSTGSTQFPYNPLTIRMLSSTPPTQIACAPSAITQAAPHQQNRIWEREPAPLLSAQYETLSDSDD
molecule,measurement,setting,value
"CO[C@H]1C[C@@H]2CC[C@@H](C)[C@@](O)(O2)C(=O)C(=O)N2CCCC[C@H]2C(=O)O[C@H]([C@H](C)C[C@@H]2CC[C@@H](O)[C@H](OC)C2)CC(=O)[C@H](C)/C=C(\C)[C@@H](O)[C@@H](OC)C(=O)[C@H](C)C[C@H](C)/C=C/C=C/C=C/1C [rapamycin, reference compound]",APG (Fig. S3e),[1]; [3],1.605
same,AUT (Fig. S3e),[1]; [3],1.965
same,AV (Fig. S3e),[1]; [3],3.57
same,APG (Fig. S3e),[1]; c0 = 5 (axis unlabelled),2.415
same,AUT (Fig. S3e),[1]; c0 = 5 (axis unlabelled),2.129
same,AV (Fig. S3e),[1]; c0 = 5 (axis unlabelled),4.544
same,APG (Fig. S3e),[1]; c0 = 10 (axis unlabelled),3.3128
same,AUT (Fig. S3e),[1]; c0 = 10 (axis unlabelled),3.752
same,AV (Fig. S3e),[1]; c0 = 10 (axis unlabelled),7.064
same,APG (Fig. S3e),[1]; c0 = 20 (axis unlabelled),5.184
same,AUT (Fig. S3e),[1]; c0 = 20 (axis unlabelled),4.731
same,AV (Fig. S3e),[1]; c0 = 20 (axis unlabelled),9.915
same,APG (Fig. S3e),[1]; c0 = 30 (axis unlabelled),4.9183
same,AUT (Fig. S3e),[1]; c0 = 30 (axis unlabelled),11.4046
same,AV (Fig. S3e),[1]; c0 = 30 (axis unlabelled),16.3229
"CC1(C)CC=C(c2cnc3ccccc3c2)c2cc(C(=O)Nc3ccc(C(=O)O)cc3)ccc21 [BMS614, reference compound]",changes in the transcriptome,NIH3T3 cells,marked changes in the transcriptome
O=C(CCCCC1SCC2NC(=O)NC21)NCCCOCCOCCOCCCNC(=O)c1ccc(C2=Nc3ccc(Cl)cc3OC2)cc1 (stereo not shown) [biotinylated CA compound],co-immunoprecipitation of cellular RARα and N-CoR1,N-CoR1 and RARα,could be co-immunoprecipitated
CC(=O)Nc1ccc(C2=Nc3ccc(Cl)cc3OC2)cc1 [CA 77],"Fig. 7a, retinal measurement by eccentricity, eccentricity 1",rd10 mice,0.2752 and 0.2828 and 0.2675 and 0.4954 and 0.393 and 0.3603 and 0.3938
same,"Fig. 7a, retinal measurement by eccentricity, eccentricity 2",rd10 mice,0.3254 and 0.2696 and 0.3495 and 0.2864 and 0.4558 and 0.3792 and 0.723
same,"Fig. 7a, retinal measurement by eccentricity, eccentricity 3",rd10 mice,0.3333 and 0.3595 and 0.4443 and 0.4969 and 0.8558 and 0.7642 and 0.8417
same,"Fig. 7a, retinal measurement by eccentricity, eccentricity 4",rd10 mice,0.6989 and 0.5535 and 0.938 and 1.0799 and 0.9103 and 0.9911 and 0.7623
same,"Fig. 7a, retinal measurement by eccentricity, eccentricity -1",rd10 mice,0.7616 and 0.2157 and 0.1911 and 0.3575 and 0.223 and 0.305
same,"Fig. 7a, retinal measurement by eccentricity, eccentricity -2",rd10 mice,0.2825 and 0.2446 and 0.25 and 0.4552 and 0.7496 and 0.1825 and 0.2782
same,"Fig. 7a, retinal measurement by eccentricity, eccentricity -3",rd10 mice,0.4178 and 0.4298 and 0.7568 and 0.9291 and 0.9244 and 0.276 and 0.3979
B1,binding result,[2],binds
